Assay results reported in patent US20250129067A1 (Progentos Therapeutics, Inc., priority 2021, published 2025).

Tests used:
[1] = test system: GPR17+ cells (newly differentiated oligodendrocytes); experiment: In vivo OPC differentiation, GPR17+ cells in brain; conditions: for In vivo GPR17+ cells, GPR17 Fold Induction (Over Vehicle): adult female C57BL/6 mice, PO or IP, treatment period 1-3 days, entire brain, fold change over vehicle treated animals; for fold induction at 3 mg/kg: po
[2] = test system: Oligodendrocyte progenitor cells (OPCs); experiment: In vitro OPC differentiation assay, GPR17 expression (immunocytochemistry); conditions: 72 hours; for GPR17 Fold Induction (Over Vehicle; 3 μM): 3 μM (10× concentration, final 0.3 μM)
[3] = molecular target: PDGFRα (Homo sapiens (Human), UniProt P16234); experiment: PDGFRα kinase enzyme assay (Promega PDGFRα Kinase Enzyme System, ADP-Glo); assay type: biochemical; conditions: 11-point dose response, 10,000 nM to 0.169 nM; 150 uM ATP; BLQ = below limit of quantitation; read-out: IC50 Values on PDGFRα Kinase Inhibition, IC50
How it was run: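 Purified PDGFRα protein (20 ng) reacted with test compound per the Promega kinase system protocol. ADP formed was measured by ADP-Glo luminescence against a standard curve, giving IC50.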

[4] = Mus musculus, 24 h, read-out: GPR17 Fold Induction (Over Vehicle)

PDGFRα, sequence (P16234 24-1089): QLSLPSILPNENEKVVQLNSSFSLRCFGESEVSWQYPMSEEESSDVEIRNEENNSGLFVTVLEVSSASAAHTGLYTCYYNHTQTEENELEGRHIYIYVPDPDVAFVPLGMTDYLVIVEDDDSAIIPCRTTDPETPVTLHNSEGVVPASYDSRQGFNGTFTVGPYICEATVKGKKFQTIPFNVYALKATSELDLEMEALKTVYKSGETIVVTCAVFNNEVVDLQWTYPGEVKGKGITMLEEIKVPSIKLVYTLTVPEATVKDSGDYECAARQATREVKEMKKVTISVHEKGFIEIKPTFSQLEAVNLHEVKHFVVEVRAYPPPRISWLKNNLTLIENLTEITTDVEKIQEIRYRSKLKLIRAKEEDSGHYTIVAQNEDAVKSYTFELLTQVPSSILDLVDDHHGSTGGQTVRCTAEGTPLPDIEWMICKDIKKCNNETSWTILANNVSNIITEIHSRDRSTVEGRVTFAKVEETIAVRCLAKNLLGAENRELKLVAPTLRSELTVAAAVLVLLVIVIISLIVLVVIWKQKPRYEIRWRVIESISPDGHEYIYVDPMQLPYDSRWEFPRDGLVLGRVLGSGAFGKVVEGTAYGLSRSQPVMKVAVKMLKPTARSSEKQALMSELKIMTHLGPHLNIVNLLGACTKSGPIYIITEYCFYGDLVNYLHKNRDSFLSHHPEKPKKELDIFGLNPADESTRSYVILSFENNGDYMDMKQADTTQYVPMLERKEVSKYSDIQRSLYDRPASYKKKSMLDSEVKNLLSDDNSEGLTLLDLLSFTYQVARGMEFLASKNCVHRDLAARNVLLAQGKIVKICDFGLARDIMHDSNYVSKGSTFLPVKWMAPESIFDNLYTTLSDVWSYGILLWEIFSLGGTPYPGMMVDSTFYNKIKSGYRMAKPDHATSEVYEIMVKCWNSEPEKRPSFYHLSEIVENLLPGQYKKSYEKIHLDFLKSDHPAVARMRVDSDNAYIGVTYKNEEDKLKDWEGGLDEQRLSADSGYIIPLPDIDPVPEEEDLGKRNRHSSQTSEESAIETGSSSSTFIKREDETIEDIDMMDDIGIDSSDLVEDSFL

Row | SMILES | GPR17 Fold Induction (Over Vehicle; 3 μM) ([2]; fold change over vehicle) | IC50 [3] [µM] | also measured
1 | S=C(NCc1ccc2c(c1)OCO2)N1CCN(c2ncnc3c2oc2ccccc23)CC1 [Amuvatinib, amuvatinib, reference compound] |  |  | In vivo GPR17+ cells, GPR17 Fold Induction (Over Vehicle) [1]: 2.18
2 | Cn1cc(-c2ccc3c(N4CCN(c5ncc(Cc6ccccn6)cn5)CC4)cnn3c2)cn1 [Compound 250, 6-(1-methyl-1H-pyrazol-4-yl)-3-{4-[5-(pyridine-2-ylmethyl)pyrimidin-2-yl]piperazin-1-yl}pyrazolo[1,5-a]pyridine] | 9.74 | 0.0804 | fold induction at 3 mg/kg [1, 4]: 6.19
3 | Cn1cc(-c2ccc3c(N4CCN(c5ncc([S+]([O-])c6ccccc6)cn5)CC4)cnn3c2)cn1 (centres unmarked) [Compound 187, 6-(1-methyl-1H-pyrazol-4-yl)-3-(4-(5-(phenylsulfinyl)pyrimidin-2-yl)piperazin-1-yl)pyrazolo[1,5-a]pyridine] | 4.97 | 0.153 | fold induction at 3 mg/kg [1, 4]: 1.32
4 | Cn1cc(-c2ccc3c(N4CCN(C(=O)NCc5ccccc5)CC4)cnn3c2)cn1 [Compound 161, N-benzyl-4-(6-(1-methyl-1H-pyrazol-4-yl)pyrazolo[1,5-a]pyridin-3-yl)piperazine-1-carboxamide] | 3.97 | 2.11 | fold induction at 3 mg/kg [1, 4]: 1.81
5 | CCN(CC)CCNC(=O)c1c(C)[nH]c(/C=C2\C(=O)Nc3ccc(-c4csc(-c5ccccc5)n4)cc32)c1C [Amcasertib, amcasertib, reference compound] |  |  | In vivo GPR17+ cells, GPR17 Fold Induction (Over Vehicle) [1]: 1.49
6 | Cc1[nH]c(/C=C2\C(=O)Nc3ccc(F)cc32)c(C)c1C(=O)NC[C@H](O)CN1CCOCC1 [SU-14813, reference compound] |  |  | GPR17 Fold Induction (Over Vehicle; 5 μM) ([2]; primary rat OPCs, 5 μM (10x; final 0.5 μM per method), percent GPR17+ cells as fold change over vehicle): 4.12; In vivo GPR17+ cells, GPR17 Fold Induction (Over Vehicle) [1]: 2.63
7 | Cc1[nH]c(/C=C2\C(=O)Nc3ccccc32)c(C)c1CCC(=O)O [Orantinib, orantinib, reference compound] |  |  | In vivo GPR17+ cells, GPR17 Fold Induction (Over Vehicle) [1]: 2.43
8 | Cc1ccccc1C(OCCN(C)C)c1ccccc1 (centres unmarked) [Orphenadrine] |  |  | In vivo GPR17+ cells, GPR17 Fold Induction (Over Vehicle) [1]: 1.07
9 | CN(C[C@@H]1COCCO1)S(=O)(=O)Nc1ccc2ccc3ncc(-c4cnn(C)c4)cc3c(=O)c2c1 [MK-2461, reference compound] |  |  | In vivo GPR17+ cells, GPR17 Fold Induction (Over Vehicle) [1]: 1.47
10 | Cn1cc(-c2cn3c(N4CCN(c5ncc(Cc6ccccc6)cn5)CC4)cnc3cn2)cn1 [Compound 21, 3-[4-(5-benzylpyrimidin-2-yl)piperazin-1-yl]-6-(1-methyl-1H-pyrazol-4-yl)imidazo[1,2-a]pyrazine] |  |  | fold induction at 150 mg/kg ([1]; Mus musculus, ip, 24 h, read-out: GPR17 Fold Induction (Over Vehicle)): 1.48
11 | Cn1cc(-c2ccc3c(N4CCN(c5ncnn5Cc5ccccc5)CC4)cnn3c2)cn1 [Compound 239, 3-(4-(1-benzyl-1H-1,2,4-triazol-5-yl)piperazin-1-yl)-6-(1-methyl-1H-pyrazol-4-yl)pyrazolo[1,5-a]pyridine] | 1.88 | > 10 | 
12 | Cc1cn(-c2ccn3c(N4CCN(C(=O)OC(C)(C)C)CC4)cnc3n2)cn1 [Compound 104, tert-butyl 4-(7-(4-methyl-1H-imidazol-1-yl)imidazo[1,2-a]pyrimidin-3-yl)piperazine-1-carboxylate] | 1.40 | 2.8 | 
13 | Cn1cc(-c2cnn3c(N4CCN(C(=O)NCc5ccc(C(F)(F)F)cc5)CC4)cnc3c2)cn1 [Compound 295, 4-(7-(1-methyl-1H-pyrazol-4-yl)imidazo[1,2-b]pyridazin-3-yl)-N-(4-(trifluoromethyl)benzyl)piperazine-1-carboxamide] | 8.65 | 0.0317 | 
14 | Cn1cc(-c2ccc3c(N4CCN(C(=O)OCc5ccccc5C(N)=O)CC4)cnn3c2)cn1 [Compound 280, 2-carbamoylbenzyl 4-(6-(1-methyl-1H-pyrazol-4-yl)pyrazolo[1,5-a]pyridin-3-yl)piperazine-1-carboxylate] | 3.05 | 6.18 | 
15 | Cn1cc(-c2ccc3c(N4CCN(c5ncc([C@@H](O)[C@@H]6CCCOC6)cn5)CC4)cnn3c2)cn1 [Compound 193, (S)-(2-(4-(6-(1-methyl-1H-pyrazol-4-yl)pyrazolo[1,5-a]pyridin-3-yl)piperazin-1-yl)pyrimidin-5-yl)((R)-tetrahydro-2H-pyran-3-yl)methanol] | 11.72 | 0.0691 | 
16 | Cn1cc(-c2ccc3c(N4CCN(C(=O)OCc5ccc(Cl)s5)CC4)cnn3c2)cn1 [Compound 196, (5-chlorothiophen-2-yl)methyl 4-(6-(1-methyl-1H-pyrazol-4-yl)pyrazolo[1,5-a]pyridin-3-yl)piperazine-1-carboxylate] | 5.65 | 0.522 | 
17 | Cn1cc(-c2ccc3c(C4CCC(CCc5ccccc5)CC4)cnn3c2)cn1 (centres unmarked) [Compound 141, 6-(1-methyl-1H-pyrazol-4-yl)-3-(4-phenethylcyclohexyl)pyrazolo[1,5-a]pyridine] | 1.09 | > 10 | 
18 | Cn1cc(-c2ccn3c(N4CCN(C(=O)NCc5ccc(C(F)(F)F)cc5)CC4)cnc3n2)cn1 [Compound 119, 4-(7-(1-methyl-1H-pyrazol-4-yl)imidazo[1,2-a]pyrimidin-3-yl)-N-(4-(trifluoromethyl)benzyl)piperazine-1-carboxamide] | 8.04 | 1.71 | 
19 | CN(Cc1ccccc1)C(=O)C1CCC(c2cnn3cc(-c4cnn(C)c4)ccc23)C1 (centres unmarked) [Compound 140, N-benzyl-N-methyl-3-(6-(1-methyl-1H-pyrazol-4-yl)pyrazolo[1,5-a]pyridin-3-yl)cyclopentane-1-carboxamide] | 3.54 | > 10 | 
20 | Cn1cc(-c2ccc3c(N4CCN(c5ncc(Cc6ncco6)cn5)CC4)cnn3c2)cn1 [Compound 170, 2-((2-(4-(6-(1-methyl-1H-pyrazol-4-yl)pyrazolo[1,5-a]pyridin-3-yl)piperazin-1-yl)pyrimidin-5-yl)methyl)oxazole] | 3.96 | 2.38 | 
21 | Cn1cc(-c2ccc3c(N4CCN(C(=O)OCc5ncc(Cl)s5)CC4)cnn3c2)cn1 [Compound 195, (5-chlorothiazol-2-yl)methyl 4-(6-(1-methyl-1H-pyrazol-4-yl)pyrazolo[1,5-a]pyridin-3-yl)piperazine-1-carboxylate] | 5.57 | 1.23 | 
22 | Cn1cc(-c2ccc3c(N4CCN(c5ncc(CCC(O)c6ccccc6)cn5)CC4)cnn3c2)cn1 (centres unmarked) [Compound 165, 3-(2-(4-(6-(1-methyl-1H-pyrazol-4-yl)pyrazolo[1,5-a]pyridin-3-yl)piperazin-1-yl)pyrimidin-5-yl)-1-phenylpropan-1-ol] | 18.42 | 0.686 | 
23 | Cn1cc(-c2ccc3c(N4CCN(S(=O)(=O)CCc5ccccc5)CC4)cnn3c2)cn1 [Compound 160, 6-(1-methyl-1H-pyrazol-4-yl)-3-(4-(phenethylsulfonyl)piperazin-1-yl)pyrazolo[1,5-a]pyridine] | 2.80 | 9.68 | 
24 | Cn1cc(-c2ccc3c(N4CCN(c5ncc(C(O)C(F)(F)F)cn5)CC4)cnn3c2)cn1 (centres unmarked) [Compound 285, 2,2,2-trifluoro-1-(2-{4-[6-(1-methyl-1H-pyrazol-4-yl)pyrazolo[1,5-a]pyridin-3-yl]piperazin-1-yl}pyrimidin-5-yl)ethanol] | 6.20 | 7.62 | 
25 | Cc1nn(C)cc1-c1ccc2c(N3CCN(C(=O)OC(C)(C)C)CC3)cnn2c1 [Compound 220, tert-butyl 4-(6-(1,3-dimethyl-1H-pyrazol-4-yl)pyrazolo[1,5-a]pyridin-3-yl)piperazine-1-carboxylate] | 5.20 | 0.528 | 
26 | Cn1cc(-c2ccc3c(N4CCN(c5ncc(CC6CCCCC6)cn5)CC4)cnn3c2)cn1 [Compound 62, 3-{4-[5-(cyclohexylmethyl)pyrimidin-2-yl]piperazin-1-yl}-6-(1-methyl-1H-pyrazol-4-yl)pyrazolo[1,5-a]pyridine] | 6.53 | 0.415 | 
27 | Cn1cc(-c2ccc3c(N4CCN(c5ncc(Cc6ncon6)cn5)CC4)cnn3c2)cn1 [Compound 301, 3-((2-(4-(6-(1-methyl-1H-pyrazol-4-yl)pyrazolo[1,5-a]pyridin-3-yl)piperazin-1-yl)pyrimidin-5-yl)methyl)-1,2,4-oxadiazole] | 2.96 | > 10 | 
28 | Cn1cc(-c2cn3ncc(N4CCN(c5ncc(Cc6ccccc6)cn5)CC4)c3cn2)cn1 [Compound 22, 3-[4-(5-Benzylpyrimidin-2-yl)piperazin-1-yl]-6-(1-methyl-1H-pyrazol-4-yl)pyrazolo[1,5-a]pyrazine] | 6.13 | > 10 | GPR17 Fold Induction (Over Vehicle; 5 μM) ([2]; 5 μM (10× concentration, final 0.5 μM), fold change over vehicle): 3.46
29 | [2H]C1([2H])N(C(=O)O[C@H](C)c2ccc(Cl)cc2)C([2H])([2H])C([2H])([2H])N(c2cnn3cc(-c4cnn(C)c4)ccc23)C1([2H])[2H] [Compound 290, (R)-1-(4-chlorophenyl)ethyl 4-(6-(1-methyl-1H-pyrazol-4-yl)pyrazolo[1,5-a]pyridin-3-yl)piperazine-1-carboxylate-2,2,3,3,5,5,6,6-d8] | 10.47 | 0.00056 | 
